Some test systems named below: MDA-MB-231 breast; SF-268 CNS; SK-MEL-2 melanoma; MDA-MB-435; MCF7 breast; HT29 colon; OVCAR-8 ovarian; UACC-257 melanoma; M14 melanoma; HS 578T breast.
Holding throughout (experiment): NCI tumour cell line growth inhibition, 48 h

SMILES strings stand for the structures. Where “and” joins values, the source holds several entries; their conditions need not be identical. Equal entries are not always repeated.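 Cells were grown in 96-well plates and exposed to each compound for 48 hours at five concentrations; endpoints were interpolated linearly between bracketing concentrations, or set to the highest concentration if not reached. At the GI50, growth is halved. TGI marks complete inhibition of growth.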

Consider `CCc1ccc([OH2+])c(C(=O)[O-])c1.CCc1ccc([OH2+])c(C(=O)[O-])c1.CCc1ccc([OH2+])c(C(=O)[O-])c1.CCc1ccc([OH2+])c(C(=O)[O-])c1.[Cu+2].[Cu+2]`, for which the GI50 in the assay on MDA-MB-231 breast is > 100 µM; with SF-268 CNS, > 100 µM; in the assay on SK-MEL-2 melanoma, > 91.3 µM; in the assay on MDA-MB-435, 49.3 µM; in the assay with MCF7 breast, 35 µM; in the assay with HT29 colon, 44.7 µM. Further, the GI50 in the assay on OVCAR-8 ovarian is 5.59 µM; in the assay on UACC-257 melanoma it was > 100 µM; in the assay on M14 melanoma it was > 100 µM; in the assay on HS 578T breast, > 100 µM. Also, the TGI in the assay with MDA-MB-231 breast, in the assay with SF-268 CNS, with SK-MEL-2 melanoma, in the assay on MDA-MB-435, in the assay with MCF7 breast and in the assay on HT29 colon was > 100 µM each time. For the same molecule, the TGI in the assay on OVCAR-8 ovarian, in the assay with UACC-257 melanoma, in the assay on M14 melanoma and in the assay on HS 578T breast was > 100 µM each time.

As to `O=C1c2ccccc2-c2cn(Cc3ccccc3)c3cccc(c23)C1c1cccnc1` (configuration not stated), the GI50 in the assay on MDA-MB-231 breast was 4.18 µM; in the assay on SF-268 CNS, 18.5 µM; in the assay with SK-MEL-2 melanoma, 3.9 µM; in the assay with MDA-MB-435, 1.32 µM; in the assay on MCF7 breast, 1.64 µM; in the assay with HT29 colon it was 1.86 µM. Further, the GI50 is 9.3 µM with OVCAR-8 ovarian, 11.2 µM in the assay on UACC-257 melanoma, 3.89 µM in the assay on M14 melanoma and 2.92 µM with HS 578T breast. Moreover, the TGI with MDA-MB-231 breast is > 50 µM; in the assay with SF-268 CNS, > 50 µM; in the assay with SK-MEL-2 melanoma, > 50 µM; in the assay on MDA-MB-435, 6.13 µM; in the assay on MCF7 breast it was > 50 µM; with HT29 colon, > 50 µM. Further, the TGI in the assay on OVCAR-8 ovarian is > 50 µM; in the assay with UACC-257 melanoma, > 50 µM; with M14 melanoma it was > 50 µM; in the assay with HS 578T breast it was 45 µM.

On to `COc1cc(/C=N\Nc2ccccc2)ccc1OC(=O)c1ccccc1`, for which the GI50 is 1.91 µM with MDA-MB-231 breast; 4.54 µM in the assay with SF-268 CNS; 2.1 µM in the assay on SK-MEL-2 melanoma; 1.25 µM with MDA-MB-435; 1.57 µM in the assay with MCF7 breast; 3.72 µM in the assay with HT29 colon. The GI50 in the assay with OVCAR-8 ovarian is 3.46 µM; with UACC-257 melanoma it was 7.12 µM; in the assay on M14 melanoma it was 0.677 µM; with HS 578T breast, 18 µM. Besides, the TGI in the assay with MDA-MB-231 breast is 32.2 µM; with SF-268 CNS, > 100 µM; in the assay on SK-MEL-2 melanoma, 60 µM; in the assay with MDA-MB-435 it was > 100 µM; in the assay on MCF7 breast it was 23.7 µM; in the assay on HT29 colon, 17.7 µM. Also, the TGI was > 100 µM with OVCAR-8 ovarian, > 100 µM in the assay on UACC-257 melanoma, 15.8 µM in the assay with M14 melanoma and > 100 µM in the assay on HS 578T breast.

For the molecule `COc1cc2c(cc1O)CCN[C@@]21CS[C@H]2c3c(OC(C)=O)c(C)c4c(c3C(COC1=O)N1C2C2NC(Cc3cc(C)c(OC)c(O)c32)[C@@H]1O)OCO4` (some centres not stated), the TGI was < 0.01 µM in the assay with MDA-MB-231 breast; < 10 nM and 4.8e-07 µg/mL and 0.0045 µg/mL with SF-268 CNS; < 10 nM and 0.0045 µg/mL with SK-MEL-2 melanoma; < 0.01 µM with MDA-MB-435; 10.5 µM in the assay with MCF7 breast; 11.1 µM and 5.58 µg/mL with HT29 colon. The TGI in the assay on OVCAR-8 ovarian was < 10 nM and 0.472 µg/mL; in the assay on UACC-257 melanoma it was 14.7 nM and 2.1e-07 µg/mL; in the assay with M14 melanoma, < 10 nM and 1.8e-07 µg/mL and 0.0045 µg/mL; with HS 578T breast, 0.302 µM. The GI50 in the assay with SF-268 CNS, in the assay on SK-MEL-2 melanoma, in the assay with HT29 colon, in the assay with OVCAR-8 ovarian and with M14 melanoma was 4.5 ng/mL each time.

For `O=C(Nc1c[nH]c(=O)[nH]c1=O)Oc1ccccc1`, the TGI with MDA-MB-231 breast, in the assay with SF-268 CNS, in the assay with SK-MEL-2 melanoma, with MDA-MB-435, in the assay on MCF7 breast and in the assay on HT29 colon was > 100 µM throughout. Further, the TGI with OVCAR-8 ovarian, in the assay with UACC-257 melanoma, with M14 melanoma and with HS 578T breast was > 100 µM each time.

Regarding `Oc1ccccc1/C=N\NC(=S)Nc1ccc(F)cc1`, the GI50 was 1.74 µM with MDA-MB-231 breast; 0.95 µM with SF-268 CNS; 5.96 µM in the assay with SK-MEL-2 melanoma; 0.404 µM in the assay on MDA-MB-435; 0.888 µM in the assay with MCF7 breast; 4.49 µM in the assay with HT29 colon. Further, the GI50 in the assay on OVCAR-8 ovarian is 1.22 µM; in the assay with UACC-257 melanoma, 2.68 µM; in the assay on M14 melanoma it was 1.01 µM; with HS 578T breast it was 5.14 µM. Besides, the TGI in the assay on MDA-MB-231 breast was > 100 µM; in the assay with SF-268 CNS, > 73.6 µM; in the assay with SK-MEL-2 melanoma, > 100 µM; with MDA-MB-435, > 96.6 µM; in the assay on MCF7 breast it was > 100 µM; in the assay with HT29 colon, 25 µM. Further, the TGI in the assay with OVCAR-8 ovarian was > 63.1 µM; in the assay on UACC-257 melanoma, > 65.3 µM; in the assay with M14 melanoma it was 3.57 µM; in the assay on HS 578T breast it was > 100 µM.

`COc1oc(C2C/C(=C/C(C)=C/C(C)=C/C(C)=C/c3ccc([N+](=O)[O-])cc3)CO2)c(C)c(=O)c1C` (configuration not stated): the TGI in the assay on MDA-MB-231 breast is 38.9 µM; with SF-268 CNS, 42.6 µM; in the assay with SK-MEL-2 melanoma, > 75.8 µM; in the assay on MDA-MB-435, 42.4 µM; in the assay with MCF7 breast, 19 µM; in the assay with HT29 colon, > 50 µM. The TGI in the assay with OVCAR-8 ovarian is 32.5 µM; with UACC-257 melanoma, 66 µM; with M14 melanoma, > 100 µM; in the assay with HS 578T breast it was > 31.6 µM.

For `C=C1C(C)C2C(Cc3ccccc3)NC(=O)C23C(OC(C)=O)C=CC(C)(O)C(=O)C(C)C/C=C/C3C1O` (configuration not stated), the GI50 was 0.193 µM in the assay with MDA-MB-231 breast; 0.698 µM with SF-268 CNS; 2.32 µM in the assay with MDA-MB-435; 8.87 µM in the assay with MCF7 breast; 0.0505 µM and 0.176 µM and 0.0663 µM in the assay with HT29 colon; > 471 µM in the assay on OVCAR-8 ovarian. Further, the GI50 was 26.3 µM with UACC-257 melanoma; 3.18 µM with M14 melanoma; 0.0185 µM and 0.0551 µM with HS 578T breast. For the same molecule, the TGI with MDA-MB-231 breast was > 220 µM; with SK-MEL-2 melanoma it was 74.8 µM; with MDA-MB-435, > 414 µM; with MCF7 breast it was 87 µM and 275 µM; with HT29 colon it was > 278 µM; with OVCAR-8 ovarian, > 500 µM. For the same molecule, the TGI is 45.4 µM and 335 µM in the assay on UACC-257 melanoma; 2.07 µM and 1.18 µM in the assay with HS 578T breast.
